From PubChem BioAssay AID651792 (The Scripps Research Institute Molecular Screening Center, 2012)
Active and inactive are the calls of the source. How the calls were made is not given here.

Each molecule was assayed on FXN GAA850 promoter luciferase reporter, luminescence (assay: GAA850 FXN promoter activators, dose response, cell-based, luminescence, GAA850 repeat (AID 651792)).
For `Cn1c(SCC(=O)NCC2CCCO2)ncc(C(=O)Nc2ccccc2)c1=O` (configuration not stated), the EC50 was > 59.6 µM (inactive).
`COc1ccccc1NC(=O)c1cnc(SCC(=O)Nc2nc3ccccc3s2)n(C)c1=O` was tested, and the EC50 was > 59.6 µM (inactive).
For `Fc1ccc2nc(Nc3nnc(-c4ccccc4Cl)o3)sc2c1`, the EC50 was > 59.6 µM (inactive).
`COc1cccc2sc(Nc3nnc(-c4ccc(F)cc4)o3)nc12` was tested, and the EC50 was > 59.6 µM (inactive).
In the case of `COc1ccccc1-c1nnc(Nc2nc3c(OC)cccc3s2)o1`, the EC50 is reported as > 59.6 µM (inactive).
With `Clc1ccccc1-c1nnc(Nc2nc3cc4c(cc3s2)OCO4)o1` the EC50 was > 59.6 µM (inactive).
For `COc1cccc2sc(Nc3nnc(-c4ccccc4)o3)nc12`, the EC50 was > 59.6 µM (inactive).
`CSc1ccc2nc(Nc3nnc(-c4ccccc4Cl)o3)sc2c1` was tested, and the EC50 was > 59.6 µM (inactive).
In the case of `COc1cccc2sc(Nc3nnc(-c4ccccc4Cl)o3)nc12`, the EC50 is reported as > 59.6 µM (inactive).
For `COc1ccc(-c2nnc(Nc3nc4ccc(SC)cc4s3)o2)c(OC)c1`, the EC50 was > 59.6 µM (inactive).
`COc1ccc(-c2nnc(Nc3nc4ccc(OC)cc4s3)o2)c(OC)c1` was tested, and the EC50 was > 59.6 µM (inactive).
With `COc1ccccc1NC(=O)c1cnc(SCC(=O)NCC2CCCO2)n(C)c1=O` (configuration not stated) the EC50 was > 59.6 µM (inactive).
For `COc1ccc(-c2nnc(Nc3nc4ccc(F)cc4s3)o2)c(OC)c1`, the EC50 was > 59.6 µM (inactive).
`CCc1nnc(NC(=O)CSc2ncc(C(=O)Nc3ccc(C)c(C)c3)c(=O)n2C)s1` was tested, and the EC50 was > 59.6 µM (inactive).
`Cc1ccc(NC(=O)c2cnc(SCC(=O)Nc3cccc(C(F)(F)F)c3)n(C)c2=O)cc1C` was tested, and the EC50 was > 59.6 µM (inactive).
For `COc1ccccc1NC(=O)c1cnc(SCC(=O)Nc2ccc3c(c2)OCO3)n(C)c1=O`, the EC50 was > 59.6 µM (inactive).
For `COc1ccc(-c2nnc(Nc3nc4cc(OC)ccc4s3)o2)c(OC)c1`, the EC50 was > 59.6 µM (inactive).
`CSc1ccc2nc(Nc3nnc(-c4ccc5c(c4)OCCO5)o3)sc2c1` was tested, and the EC50 was > 59.6 µM (inactive).
`COc1ccccc1NC(=O)c1cnc(SCC(=O)NCc2ccc3c(c2)OCO3)n(C)c1=O` was tested, and the EC50 was > 59.6 µM (inactive).
With `COc1ccc(-c2nnc(Nc3nc4c(OC)cccc4s3)o2)cc1` the EC50 was > 59.6 µM (inactive).
In the case of `Cn1c(SCC(=O)NCC2CCCO2)ncc(C(=O)Nc2ccc(Cl)cc2)c1=O` (configuration not stated), the EC50 is reported as > 59.6 µM (inactive).
With `COc1ccc(-c2nnc(Nc3nc4c(OC)cccc4s3)o2)c(OC)c1` the EC50 was > 59.6 µM (inactive).
With `COc1ccc(-c2nnc(Nc3nc4c(F)cccc4s3)o2)c(OC)c1` the EC50 was > 59.6 µM (inactive).
With `COc1ccccc1CNC(=O)CSc1ncc(C(=O)Nc2ccccc2)c(=O)n1C` the EC50 was > 59.6 µM (inactive).
With `Cn1c(SCC(=O)NCC2CCCO2)ncc(C(=O)Nc2ccc(F)cc2)c1=O` (configuration not stated) the EC50 was > 59.6 µM (inactive).
With `Fc1cccc2sc(Nc3nnc(-c4ccccc4Cl)o3)nc12` the EC50 was > 59.6 µM (inactive).
With `COc1ccccc1NC(=O)c1cnc(SCC(=O)NCc2ccccc2)n(C)c1=O` the EC50 was > 59.6 µM (inactive).
In the case of `Clc1ccc(-c2nnc(Nc3nc4cc5c(cc4s3)OCO5)o2)cc1`, the EC50 is reported as > 59.6 µM (inactive).
For `Fc1ccc(-c2nnc(Nc3nc4c(F)cccc4s3)o2)cc1`, the EC50 was > 59.6 µM (inactive).
In the case of `COc1ccccc1NC(=O)c1cnc(SCC(=O)NCCc2ccccc2)n(C)c1=O`, the EC50 is reported as > 59.6 µM (inactive).
`COc1ccccc1NC(=O)c1cnc(SCC(=O)Nc2cc(C)on2)n(C)c1=O` was tested, and the EC50 was > 59.6 µM (inactive).
For `COc1ccccc1-c1nnc(Nc2nc3ccc(F)cc3s2)o1`, the EC50 was > 59.6 µM (inactive).
